Three compounds from patent publication US9308198B2, “Treatment, prevention, and reversal of alcohol-induced brain disease” (priority 2006, dated 2016) can be followed below.

Test in all cases: Equilibrium binding assay, primary cerebellar neuron cultures
Holding throughout (type): cell-based, rat

The test system of one test is IGF-I receptor. The procedure: (§1) Fresh frozen tissue (˜100 mg) was homogenized in 5 volumes of NP-40 lysis buffer (50 mM Tris-HCl, pH 7.5, 1% NP-40, 150 mM NaCl, 1 mM EDTA, 2 mM EGTA) containing protease inhibitors (1 mM PMSF, 0.1 mM TPCK, 1 μg/ml aprotinin, 1 μg/ml pepstatin A, 0.5 μg/ml leupeptin, 1 mM NaF, 1 mM Na4P2O7). Protein concentrations were determined using the bicinchoninic acid (BCA) assay (Pierce, Rockford, Ill.). Exploratory studies determined the amounts of protein and concentrations of radiolabeled ligand required to achieve 20% specific binding. Insulin receptor binding assays were performed using 100 μg protein. IGF-I binding assays required 25 μg protein per sample, and IGF-II receptor binding assays were optimized using 10 μg protein. Competitive equilibrium binding assays were used to assess growth factor binding in relation to ethanol exposure. For total binding, duplicate individual protein samples were incubated in 100 μl reactions containing binding buffer (100 mM HEPES, pH 8.0, 118 mM NaCl, 1.2 mM MgSO4, 8.8 mM dextrose, 5 mM KCl, 1% bovine serum albumin) and 100 nCi/ml of [^125I] (2000 Ci/mmol; […]) insulin, IGF-I, or IGF-II. To measure non-specific binding, replicate samples were identically prepared but with the addition of 0.1 μM unlabeled (cold) ligand.
All reactions were performed in 1.5 ml Eppendorff tubes, and the incubations were performed at 4° C. for 16 hours with gentle platform agitation. Bound radiolabeled tracer was then precipitated by adding 500 μl of 0.15% bovine gamma globulin (prepared in 100 mM Tris-HCl, pH 8.0) followed by 400 μl 37.5% polyethylene glycol 8000 (PEG-8000; prepared in 100 mM Tris-HCl, pH 8.0) to each tube. […] The samples were counted for 1 minute in an LKB CompuGamma CS Gamma counter. Specific binding was calculated by subtracting fmol of non-specific binding, i.e., amount bound in the presence of cold ligand, from the total fmol bound (absence of unlabeled competitive ligand). The results were analyzed and plotted using the GraphPad Prism 4 software (GraphPad Software, Inc., San Diego, Calif.). […]

The test system of a further test is insulin receptor. The procedure:
as §1
(§2) All reactions were performed in 1.5 ml Eppendorff tubes, and the incubations were performed at 4° C. for 16 hours with gentle platform agitation. Bound radiolabeled tracer was then precipitated by adding 500 μl of 0.15% bovine gamma globulin (prepared in 100 mM Tris-HCl, pH 8.0) followed by 400 μl 37.5% polyethylene glycol 8000 (PEG-8000; prepared in 100 mM Tris-HCl, pH 8.0) to each tube. The samples were thoroughly mixed by vortexing, and then incubated on ice for at least 2 hours. The precipitates were collected by centrifuging the samples at 15,000×g for 5 minutes at room temperature. The supernatant fraction, which contained unbound (free) ligand, was transferred in its entirety to a Gamma counting tube (Sarstedt, Newton, N.C.). The Eppendorff tube tip containing the pellet was cut and released directly into a separate Gamma counting tube. The samples were counted for 1 minute in an LKB CompuGamma CS Gamma counter. Specific binding was calculated by subtracting fmol of non-specific binding, i.e., amount bound in the presence of cold ligand, from the total fmol bound (absence of unlabeled competitive ligand). The results were analyzed and plotted using the GraphPad Prism 4 software (GraphPad Software, Inc., San Diego, Calif.).
(§3) In vitro experiments were used to examine the effects of ethanol on receptor binding and choline acetyltransferase (ChAT) and acetylcholinesterase (AChE) expression in cerebellar neurons. Primary neuronal cultures were generated with postnatal day 8 rat pup cerebellar tissue (Nikolic et al. Genes Dev. 10:816 (1996)). The cultures were maintained with Dulbecco's modified Eagle's medium (DMEM) supplemented with 5% fetal calf serum, 4 mM glutamine, 100 μM non-essential amino acid mixture (Gibco-BRL, Grand Island, N.Y.), 25 mM KCl, and 9 g/L glucose. […] Alcohol Clin. Exp. Res. 24:716 (2000); Banerjee et al. Alcohol Clin. Exp. Res. 22:2093 (1998)). Control cultures were identically treated but with water added to the reservoir tray. The chambers were flushed with gas containing 75% nitrogen, 20% oxygen, and 5% carbon dioxide. […] Alternatively, the cells were serum-starved for 12 hours and then stimulated with 10 nM insulin, […], 25 nM IGF-II, or vehicle for 16 hours, and RNA was harvested to measure ChAT and AChE expression.

The test system of the next test is IGF-II receptor. As to the method:
as §1, §2, §3

Where [1] appears, read: 50 mM ethanol for 96 hours vs control cultures.
Setting [2] is: 10 mM for 3 hours, control cerebellar neurons.
Where [3] appears, read: 10 mM for 3 hours, control and ethanol-exposed cultures, relative to vehicle-treated cells.

As to `CCO` [ethanol], the IGF-I receptor binding entry with IGF-I receptor (setting [1]) is recorded as “significantly reduced”. The insulin receptor binding result in the test with insulin receptor (setting [1]) is reported as “significantly reduced”. For the same compound, the IGF-II receptor binding entry in the test on IGF-II receptor (setting [1]) is given as “significantly reduced”.

As to `CC(C)CCC[C@@H](C)[C@H]1CC[C@H]2[C@@H]3CC=C4C[C@@H](O)CC[C@]4(C)[C@H]3CC[C@]12C` [cholesterol], in the test on IGF-I receptor (setting [2]), the IGF-I receptor binding entry is “significantly impaired”. Besides, the insulin receptor binding entry in the test with insulin receptor (10 mM for 3 hours, control cells) was “no significant effect”. The insulin-receptor binding result in the test with insulin receptor (10 mM for 3 hours, ethanol-treated cells) is reported as “enhanced”. Moreover, in the test on IGF-II receptor (setting [2]), the IGF-II receptor binding result was “significantly impaired”.

For the compound Methyl-β-cyclodextrin [MβCD], the IGF-I receptor binding entry in the test on IGF-I receptor (setting [3]) is reported as “significantly inhibited”. The insulin receptor binding result with insulin receptor (setting [3]) was “significantly inhibited”. Also, the IGF-II receptor binding entry in the test on IGF-II receptor (setting [3]) was “significantly inhibited”.
